Assay results: ChEMBL document CHEMBL3751806, “Synthesis, experimental evaluation and molecular modelling of hydroxamate derivatives as zinc metalloproteinase inhibitors” (Eur J Med Chem, 2016)

Tests used:
[1] = molecular target: Matrix metalloproteinase-9 (Homo sapiens, UniProt P14780); experiment: Inhibition of recombinant human MMP9 after 2 hrs using FS-6 as substrate by fluorometry
[2] = molecular target: 72 kDa type IV collagenase (Homo sapiens, UniProt P08253); experiment: Inhibition of recombinant human MMP2 after 2 hrs using FS-6 as substrate by fluorometry
Sequence of 72 kDa type IV collagenase (P08253 whole entry): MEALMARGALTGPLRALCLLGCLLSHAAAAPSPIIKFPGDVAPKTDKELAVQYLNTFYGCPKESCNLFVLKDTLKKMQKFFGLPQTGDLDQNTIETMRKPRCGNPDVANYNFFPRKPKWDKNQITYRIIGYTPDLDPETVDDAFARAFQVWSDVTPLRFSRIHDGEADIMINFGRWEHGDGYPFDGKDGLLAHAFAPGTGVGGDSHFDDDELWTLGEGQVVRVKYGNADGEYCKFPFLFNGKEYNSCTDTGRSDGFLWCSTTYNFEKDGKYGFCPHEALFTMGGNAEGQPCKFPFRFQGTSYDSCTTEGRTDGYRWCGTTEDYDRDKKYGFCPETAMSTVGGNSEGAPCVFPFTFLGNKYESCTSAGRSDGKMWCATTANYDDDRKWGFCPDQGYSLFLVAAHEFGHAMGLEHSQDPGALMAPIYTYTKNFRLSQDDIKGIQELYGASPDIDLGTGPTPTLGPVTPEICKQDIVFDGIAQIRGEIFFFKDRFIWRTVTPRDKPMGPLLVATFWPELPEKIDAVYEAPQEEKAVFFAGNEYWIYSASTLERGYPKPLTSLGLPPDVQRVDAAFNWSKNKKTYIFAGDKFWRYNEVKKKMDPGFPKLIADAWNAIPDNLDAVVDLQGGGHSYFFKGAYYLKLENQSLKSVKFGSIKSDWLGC

[3] = molecular target: Elastase (Pseudomonas aeruginosa (strain ATCC 15692 / PAO1 / 1C / PRS 101 / LMG12228), UniProt P14756); experiment: Inhibition of Pseudomonas aeruginosa pseudolysin pretreated with compound for 1 hr followed by the addition of 1.73 uM bradykinin like substrate by spectrofluorometry
Sequence of Elastase (P14756 whole entry): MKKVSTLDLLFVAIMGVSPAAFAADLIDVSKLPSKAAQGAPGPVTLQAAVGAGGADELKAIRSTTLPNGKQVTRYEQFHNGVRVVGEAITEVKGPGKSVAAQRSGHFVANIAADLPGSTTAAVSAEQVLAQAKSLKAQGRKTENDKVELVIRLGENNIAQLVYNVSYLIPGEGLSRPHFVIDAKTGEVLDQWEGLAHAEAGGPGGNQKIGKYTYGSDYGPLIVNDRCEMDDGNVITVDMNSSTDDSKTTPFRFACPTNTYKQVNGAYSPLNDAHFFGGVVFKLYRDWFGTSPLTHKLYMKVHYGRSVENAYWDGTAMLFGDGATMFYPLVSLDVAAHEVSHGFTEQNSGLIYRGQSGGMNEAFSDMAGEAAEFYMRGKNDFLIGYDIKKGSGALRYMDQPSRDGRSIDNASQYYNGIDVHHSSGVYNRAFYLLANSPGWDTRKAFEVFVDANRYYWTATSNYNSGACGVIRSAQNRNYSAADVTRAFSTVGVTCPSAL

[4] = molecular target: T1, Thermolysin (Bacillus thermoproteolyticus, UniProt P00800); experiment: Inhibition of Bacillus thermoproteolyticus thermolysin pretreated with compound for 15 mins followed by the addition of 75 uM Abz-Ala-Gly-leu-Ala-p-nitrobenzalamide as substrate by spectrofluorometry
T1 sequence (P00800 whole entry): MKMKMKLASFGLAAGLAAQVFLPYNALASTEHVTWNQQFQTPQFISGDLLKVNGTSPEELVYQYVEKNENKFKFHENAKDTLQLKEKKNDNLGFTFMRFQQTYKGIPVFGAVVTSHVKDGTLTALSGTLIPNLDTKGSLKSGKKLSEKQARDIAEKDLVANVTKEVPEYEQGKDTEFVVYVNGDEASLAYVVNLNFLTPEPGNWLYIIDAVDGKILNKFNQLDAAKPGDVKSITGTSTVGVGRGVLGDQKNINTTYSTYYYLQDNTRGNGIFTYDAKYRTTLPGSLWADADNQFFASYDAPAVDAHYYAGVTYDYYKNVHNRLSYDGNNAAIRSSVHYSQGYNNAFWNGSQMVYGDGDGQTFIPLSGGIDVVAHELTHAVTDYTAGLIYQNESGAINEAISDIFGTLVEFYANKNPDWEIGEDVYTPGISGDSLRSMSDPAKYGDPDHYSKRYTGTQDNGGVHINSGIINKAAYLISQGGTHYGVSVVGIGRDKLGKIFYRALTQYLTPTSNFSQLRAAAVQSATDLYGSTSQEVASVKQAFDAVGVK

[5] = molecular target: T1, Thermolysin; experiment: Inhibition of Bacillus thermoproteolyticus thermolysin pretreated with compound for 1 hr followed by the addition of 3.33 uM bradykinin like substrate by spectrofluorometry assay
[6] = molecular target: Disintegrin and metalloproteinase domain-containing protein 17 (Homo sapiens, UniProt P78536); experiment: Inhibition of recombinant human ADAM17 after 30 mins using FS-6 as substrate by fluorometry
Sequence of Disintegrin and metalloproteinase domain-containing protein 17 (P78536 whole entry, the tested form may be a part): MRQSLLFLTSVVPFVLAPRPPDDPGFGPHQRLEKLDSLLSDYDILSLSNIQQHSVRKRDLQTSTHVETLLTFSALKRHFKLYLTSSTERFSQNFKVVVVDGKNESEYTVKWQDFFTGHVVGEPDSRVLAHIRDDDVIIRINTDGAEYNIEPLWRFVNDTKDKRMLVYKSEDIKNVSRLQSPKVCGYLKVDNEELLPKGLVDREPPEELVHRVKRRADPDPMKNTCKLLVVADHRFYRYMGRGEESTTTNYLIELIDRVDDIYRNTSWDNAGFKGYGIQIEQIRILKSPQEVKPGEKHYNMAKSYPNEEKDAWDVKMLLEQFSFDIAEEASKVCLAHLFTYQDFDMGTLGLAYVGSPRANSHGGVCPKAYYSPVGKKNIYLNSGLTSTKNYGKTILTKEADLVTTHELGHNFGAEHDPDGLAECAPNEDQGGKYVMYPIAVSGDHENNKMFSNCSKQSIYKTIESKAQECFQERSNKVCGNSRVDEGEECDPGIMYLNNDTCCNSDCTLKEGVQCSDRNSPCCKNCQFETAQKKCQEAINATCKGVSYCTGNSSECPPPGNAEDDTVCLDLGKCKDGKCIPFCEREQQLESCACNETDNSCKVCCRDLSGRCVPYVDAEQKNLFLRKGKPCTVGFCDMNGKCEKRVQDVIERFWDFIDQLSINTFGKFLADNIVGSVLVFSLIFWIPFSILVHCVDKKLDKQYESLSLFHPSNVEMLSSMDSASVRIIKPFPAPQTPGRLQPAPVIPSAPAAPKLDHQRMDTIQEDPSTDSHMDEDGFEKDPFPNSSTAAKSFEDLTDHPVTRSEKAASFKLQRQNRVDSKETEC

[7] = molecular target: Thermolysin (Bacillus thermoproteolyticus) (UniProt P00800); experiment: Inhibition of Bacillus thermoproteolyticus thermolysin pretreated with compound for 15 mins followed by the addition of Abz-Ala-Gly-leu-Ala-p-nitrobenzalamide as substrate by spectrofluorometry

Sequence of Matrix metalloproteinase-9 (P14780 whole entry): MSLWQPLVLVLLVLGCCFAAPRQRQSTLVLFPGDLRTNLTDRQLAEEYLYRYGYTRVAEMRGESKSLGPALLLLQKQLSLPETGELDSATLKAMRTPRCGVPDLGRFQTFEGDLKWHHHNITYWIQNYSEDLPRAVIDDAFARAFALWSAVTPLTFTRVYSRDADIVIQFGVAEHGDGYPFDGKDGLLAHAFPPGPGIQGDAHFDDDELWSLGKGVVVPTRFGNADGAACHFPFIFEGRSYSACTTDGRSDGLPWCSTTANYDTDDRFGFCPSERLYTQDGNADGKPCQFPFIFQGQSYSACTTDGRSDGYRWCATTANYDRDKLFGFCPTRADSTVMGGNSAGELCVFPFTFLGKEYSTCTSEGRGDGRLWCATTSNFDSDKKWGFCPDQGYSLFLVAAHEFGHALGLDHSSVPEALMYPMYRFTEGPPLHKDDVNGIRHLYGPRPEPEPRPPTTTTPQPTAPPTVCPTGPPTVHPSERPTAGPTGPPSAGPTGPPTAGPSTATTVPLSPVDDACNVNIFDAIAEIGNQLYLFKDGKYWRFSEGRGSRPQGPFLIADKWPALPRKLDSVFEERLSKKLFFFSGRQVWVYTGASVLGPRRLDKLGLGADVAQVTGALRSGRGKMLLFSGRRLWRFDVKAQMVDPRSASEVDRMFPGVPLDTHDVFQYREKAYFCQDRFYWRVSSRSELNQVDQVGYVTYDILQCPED

Row | Compound | IC50 [1] | IC50 [2] | IC50 [3] | IC50 [4] | IC50 [5] | IC50 [6] | IC50 [7]
1 | CC(C)ON(CC(=O)NO)S(=O)(=O)c1ccc(Br)s1 | 6.2 µM | 1.1 µM | 31 µM | 29 µM | 29 µM | 114 µM | 3.3 µM
2 | O=C(N[C@H](CCN1C(=O)c2ccccc2C1=O)C(=O)NO)c1ccc(Oc2ccccc2)cc1 | 8.2 µM | 9 µM |  |  |  | 9.5 µM | 16 µM
3 | COc1ccc(S(=O)(=O)N(CC(C)C)[C@@H](C(=O)NO)C(C)C)cc1 |  |  |  |  |  |  | 103 µM
4 | O=C(CCNS(=O)(=O)c1ccc(-c2ccccc2)cc1)NO | 26 µM | 2.4 µM | 79 µM | 30 µM | 30 µM |  | 30 µM
5 | CCCCC(NOCc1ccccc1)C(=O)NO (configuration not stated) |  |  | 1.9 µM |  | 9.5 µM | 100 µM | 1.1 µM
6 | COc1ccc(S(=O)(=O)c2ccccc2CC(=O)NO)cc1 |  |  | 29 µM |  | 146 µM | 67 µM | 17 µM
7 | CC(C)CN([C@@H](C(=O)NO)C(C)C)S(=O)(=O)c1ccc(-c2ccccc2)cc1 | 0.0053 µM | 0.003 µM |  |  |  |  | 
8 | COc1ccc(S(=O)(=O)N(CC(=O)NO)OC23CC4CC(CC(C4)C2)C3)cc1 | 2 µM | 2 µM |  |  |  |  | 
9 | CC(C)ON([C@@H](C(=O)NO)C(C)C)S(=O)(=O)c1ccc(-c2ccccc2)cc1 |  |  |  |  |  | 14 µM | 
10 | O=C(Cc1ccccc1S(=O)(=O)c1ccc(OCCCN2C(=O)c3ccccc3C2=O)cc1)NO | > 10 µM | > 10 µM | 38 µM |  | 132 µM | 150 µM | 7 µM
